# Measured values published in article PMC8400257, “2-Phenoxy-3-Trichloromethylquinoxalines Are Antiplasmodial Derivatives with Activity against the Apicoplast of Plasmodium falciparum” (Pharmaceuticals, 2021).
# Read-outs that look alike come from different tables or passages of the source.
# What was measured:
# [1] = Aqueous solubility in the cell culture medium; assay type: physicochemical
# Description: It appeared that the cluttered derivatives (3q, 3s) and the 2-chlorophenoxy derivative (3b) were the less cytotoxic compounds.
# The HepG2 cell line was maintained at 37 °C, 5% CO2, at 90% humidity in MEM supplemented with 10% fetal bovine serum, 1% L-glutamine (200 mM), and penicillin (100 U/mL)/streptomycin (100 μg/mL) (complete RPMI medium). The cytotoxicity of the tested molecules on the HepG2 (hepatocarcinoma cell line purchased from ATCC, ref HB-8065) cell line was assessed according to the method of Mosmann with slight modifications. Briefly, 5.10^3 cells in 100 μL of complete medium were inoculated into each well of 96-well plates and incubated at 37 °C in humidified 5% CO2. After 24 h incubation, 100 μL of medium with various product concentrations dissolved in DMSO (final concentration less than 0.5% v/v) were added and the plates were incubated for 72 h at 37 °C. Triplicate assays were performed for each sample. Each plate-well was then microscopically examined for possible precipitate formation before the medium was aspirated from the wells. Next, 100 µL of MTT (3-(4,5-dimethyl-2-thiazolyl)-2,5-diphenyl -2H-tetrazolium bromide) solution (0.5 mg/mL in medium without FBS) was added to each well. Cells were incubated for 2 h at 37 °C. After this time, the MTT solution was removed and DMSO (100 μL) was added to dissolve the resulting blue formazan crystals. Plates were shaken vigorously (700 rpm) for 10 min. The absorbance was measured at 570 nm with 630 nm as reference wavelength using a BIO-TEK ELx808 Absorbance Microplate Reader (LabX, Midland, ON, Canada). DMSO was used as blank and doxorubicin (purchased from Sigma Aldrich) as positive control. Cell viability was calculated as a percentage of control (cells incubated without compound). […] CC50 values to represent the mean value calculated from three independent experiments.
# [2] = test system: HepG2 human hepatocyte cell line; test: In vitro cytotoxicity evaluation HepG2 (MTT); assay type: cell-based
# Description: (§1) For all molecules, the selectivity index was calculated as following SI = CC50/EC50.
# (§2) Triplicate assays were performed for each sample. Each plate-well was then microscopically examined for possible precipitate formation before the medium was aspirated from the wells. Next, 100 µL of MTT (3-(4,5-dimethyl-2-thiazolyl)-2,5-diphenyl -2H-tetrazolium bromide) solution (0.5 mg/mL in medium without FBS) was added to each well. […] After this time, the MTT solution was removed and DMSO (100 μL) was added to dissolve the resulting blue formazan crystals. Plates were shaken vigorously (700 rpm) for 10 min. The absorbance was measured at 570 nm with 630 nm as reference wavelength using a BIO-TEK ELx808 Absorbance Microplate Reader (LabX, Midland, ON, Canada). DMSO was used as blank and doxorubicin (purchased from Sigma Aldrich) as positive control. Cell viability was calculated as a percentage of control (cells incubated without compound). […] CC50 values to represent the mean value calculated from three independent experiments.
# [3] = test system: K1 chloroquine and pyrimethamine-resistant P. falciparum strain; test: In vitro antiplasmodial evaluation (SYBR Green I); assay type: cell-based, Plasmodium falciparum; settings: for EC50: read-out: EC50 PfK1 (µM) ± SD; for SI (selectivity index): SI = CC50 HepG2/EC50 PfK1
# Description: as §1
# It was maintained in continuous culture, as described previously by Trager and Jensen. Cultures were maintained in fresh A+ human erythrocytes at 2.5% hematocrit in complete medium (RPMI 1640 with 25 mM HEPES, 25 mM NaHCO3, 10% of A+ human serum) at 37 °C under reduced O2 atmosphere (gas mixture 10% O2, 5% CO2, and 85% N2). Parasitemia was maintained daily between 1 and 3%. The P. falciparum drug susceptibility test was carried out by comparing quantities of DNA in treated and control cultures of parasite in human erythrocytes according to an SYBR Green I fluorescence-based method using a 96-well fluorescence plate reader. Compounds, previously dissolved in DMSO (final concentration less than 0.5% v/v), were incubated in a total assay volume of 200 μL (RPMI, 2% hematocrit and 0.4% parasitemia) for 72 h in a humidified atmosphere (10% O2 and 5% CO2) at 37 °C, in 96-well flat bottom plates. Duplicate assays were performed for each sample. After incubation, plates were frozen at […] for 24 h. Then, the frozen plates were thawed for 1 h at 37 °C. Fifteen µL of each sample were transferred to 96-well flat bottom non-sterile black plates (Greiner Bio-one, Kremsmünster, Austria), already containing 15 µL of the SYBR Green I lysis buffer (2X SYBR Green I, 20 mM Tris base pH 7.5, 20 mM EDTA, 0.008% w/v saponin, 0.08% w/v Triton X-100). […] Plates were incubated for 15 min at 37 °C and then read on a TECAN Infinite F-200 spectrophotometer with excitation and emission wavelengths at 485 and 535 nm, respectively.
# [4] = In vitro cytotoxicity evaluation HepG2 (MTT); assay type: cell-based, human; settings: human, CC50 HepG2 (µM) ± SD
# Description: as §1, §2
# [5] = K1 strain, 72 h incubation, three independent experiments
# [6] = Plasmodium falciparum, K1, 72 h, K1 strain, 72 h incubation, three independent experiments
Molecule,Aqueous solubility in the cell culture medium [1],CC50 [2],"EC50 [3, 5]",melting point,CC50 at 72 h [4],"EC50 [3, 6]",SI (selectivity index) [3],"CC50 ([2]; human, 72 h)","EC50 ([3]; Plasmodium falciparum, K1, 72 h)"
2-(Naphthalen-1-yloxy)-3-trichloromethylquinoxaline [3r],poor aqueous solubility,> 31.2 µM,0.4 ± 0.08 µM,–,–,–,–,–,–
2-(Naphthalen-2-yloxy)-3-trichloromethylquinoxaline [3q],–,53.1 ± 7.6 µM,0.6 ± 0.1 µM,–,–,–,–,–,–
"ClC(Cl)(Cl)c1nc2ccccc2nc1Oc1ccccc1 [3a, 2-Phenoxy-3-trichloromethylquinoxaline]",–,–,–,59 °C,45.3 ± 9.6 µM,0.47 ± 0.1 µM,96.4,–,–
"Clc1ccccc1Oc1nc2ccccc2nc1C(Cl)(Cl)Cl [3b, 2-(2-Chlorophenoxy)-3-trichloromethylquinoxaline]",–,–,–,99 °C,49.5 ± 10.1 µM,0.55 ± 0.12 µM,90.0,–,–
Clc1cccc(Oc2nc3ccccc3nc2C(Cl)(Cl)Cl)c1 [3c],–,–,–,58 °C,37.2 ± 8.1 µM,0.34 ± 0.06 µM,109.4,–,–
"Clc1ccc(Oc2nc3ccccc3nc2C(Cl)(Cl)Cl)c(Cl)c1 [3d, 2-(2,4-Dichlorophenoxy)-3-trichloromethylquinoxaline]",–,–,–,120 °C,37.7 ± 4.7 µM,0.6 ± 0.12 µM,62.8,–,–
"Fc1ccccc1Oc1nc2ccccc2nc1C(Cl)(Cl)Cl [3e, 2-(2-Fluorophenoxy)-3-trichloromethylquinoxaline]",poor aqueous solubility,–,–,138 °C,> 15.6 µM,0.64 ± 0.14 µM,>24.4,–,–
"Fc1cccc(Oc2nc3ccccc3nc2C(Cl)(Cl)Cl)c1 [3f, 2-(3-Fluorophenoxy)-3-trichloromethylquinoxaline]",–,–,–,101 °C,33.5 ± 6.3 µM,0.32 ± 0.07 µM,105.0,–,–
"Fc1ccc(Oc2nc3ccccc3nc2C(Cl)(Cl)Cl)cc1 [3g, 2-(4-Fluorophenoxy)-3-trichloromethylquinoxaline]",–,–,–,56 °C,35.9 ± 7.5 µM,0.42 ± 0.09 µM,85.5,–,–
"COc1ccc(Oc2nc3ccccc3nc2C(Cl)(Cl)Cl)cc1 [3h, 2-(4-Methoxyphenoxy)-3-trichloromethylquinoxaline]",poor aqueous solubility,–,–,171 °C,> 7.8 µM,0.38 ± 0.08 µM,>20.6,–,–
"FC(F)(F)c1ccc(Oc2nc3ccccc3nc2C(Cl)(Cl)Cl)cc1 [3j, 2-Trichloromethyl-3-[4-(trifluoromethyl)phenoxy]quinoxaline]",–,–,–,129 °C,28.3 ± 4.4 µM,0.3 ± 0.06 µM,94.3,–,–
"FC(F)(F)Oc1ccc(Oc2nc3ccccc3nc2C(Cl)(Cl)Cl)cc1 [3k, 2-Trichloromethyl-3-[4-(trifluoromethoxy)phenoxy]quinoxaline]",–,–,–,66 °C,27.1 ± 4.7 µM,0.4 ± 0.08 µM,67.8,–,–
"FS(F)(F)(F)(F)c1ccc(Oc2nc3ccccc3nc2C(Cl)(Cl)Cl)cc1 [3l, 2-Trichloromethyl-3-[4-(pentafluorosulfanyl)phenoxy]quinoxaline]",–,–,–,99 °C,15.4 µM,0.2 ± 0.03 µM,83.0,16.6 ± 3.9 µM,–
"FC(F)(F)Sc1ccc(Oc2nc3ccccc3nc2C(Cl)(Cl)Cl)cc1 [3m, 2-Trichloromethyl-3-[4-(trifluoromethylthio)phenoxy]quinoxaline]",–,–,–,94 °C,25.6 ± 4.6 µM,0.2 ± 0.04 µM,128.0,–,–
"N#Cc1ccc(Oc2nc3ccccc3nc2C(Cl)(Cl)Cl)cc1 [3n, 4-[(3-Trichloromethylquinoxalin-2-yl)oxy]benzonitrile]",–,–,–,194 °C,16.6 µM,0.2 µM,–,15.4 ± 2.1 µM,–
"O=S(=O)(c1ccc(Oc2nc3ccccc3nc2C(Cl)(Cl)Cl)cc1)C(F)(F)F [3o, 2-Trichloromethyl-3-[4-(trifluoromethylsulfonyl)phenoxy]quinoxaline]",–,–,–,107 °C,7.2 ± 1.4 µM,0.22 ± 0.07 µM,32.7,–,–
"N=S(=O)(c1ccc(Oc2nc3ccccc3nc2C(Cl)(Cl)Cl)cc1)C(F)(F)F (stereo not drawn) [3p, 2-Trichloromethyl-3-[4-(S-trifluoromethylsulfonimidoyl)phenoxy]quinoxaline]",–,–,–,127 °C,6.5 ± 1.4 µM,0.21 ± 0.05 µM,31.0,–,–
"ClC(Cl)(Cl)c1nc2ccccc2nc1Oc1ccc(-c2ccccc2)cc1 [3s, 2-([1,1′-Biphenyl]-4-yloxy)-3-trichloromethylquinoxaline]",poor aqueous solubility,–,–,160 °C,> 62.5 µM,0.6 ± 0.1 µM,>104.2,–,–
"ClC(Cl)(Cl)c1nc2ccccc2nc1Oc1cccc(-c2ccccc2)c1 [3t, 2-([1,1′-Biphenyl]-3-yloxy)-3-trichloromethylquinoxaline]",poor aqueous solubility,–,–,–,> 31.2 µM,0.5 ± 0.05 µM,>62.5,–,–
"O=[N+]([O-])c1ccc(Oc2cnc3ccccc3n2)cc1 [3u, 2-(4-Nitrophenoxy)quinoxaline]",–,–,> 16 µM,156 °C,–,> 25 µM,–,–,–
"O=[N+]([O-])c1ccc(Oc2nc3ccccc3nc2C(F)(F)F)cc1 [3v, 2-(4-Nitrophenoxy)-3-trifluoromethylquinoxaline]",–,–,> 16 µM,125 °C,–,> 25 µM,–,–,–
"O=[N+]([O-])c1ccc(Oc2nc3ccccc3nc2C(Cl)Cl)cc1 [3w, 2-Dichloromethyl-3-(4-nitrophenoxy)quinoxaline]",–,–,–,112 °C,–,> 16 µM,–,–,–
"C[C@H]1[C@H](OC(=O)CCC(=O)O)O[C@@H]2O[C@@]3(C)CC[C@H]4[C@H](C)CC[C@@H]1[C@@]24OO3 [Artesunate, reference compound]",–,–,–,–,14.7 ± 1.4 µM,0.003 ± 0.0012 µM,4900,–,–
"CCN(CC)CCCC(C)Nc1ccnc2cc(Cl)ccc12 (stereo not drawn) [Chloroquine, reference compound]",–,–,–,–,–,–,–,–,0.8 µM
"COc1cccc2c1C(=O)c1c(O)c3c(c(O)c1C2=O)C[C@@](O)(C(=O)CO)C[C@@H]3O[C@H]1C[C@H](N)[C@H](O)[C@H](C)O1 [Doxorubicin, reference compound]",–,–,–,–,0.2 µM,–,–,–,–
"C[C@H]1c2cccc(O)c2C(=O)C2=C(O)[C@]3(O)C(=O)C(C(N)=O)=C(O)[C@@H](N(C)C)[C@@H]3[C@@H](O)[C@@H]21 [Doxycycline, reference compound]",–,–,–,–,20 µM,6 µM,3.3,–,–
